Results taken from patent US20100248372A1, “Composition and Method for Modulating Plant Transformation” (priority 2009, published 2010).
Read-outs that look alike come from different tables or passages of the source.

Legend:
Arabidopsis thaliana = test: Homologous recombination (GUS reporter, histochemical staining) in plants grown on supplemented medium; type: in vivo; conditions: for increase in homologous recombination vs control MS medium: about 3 weeks; for effect on homologous recombination frequency: FIG. 3; for RR (recombination rate): 3-week-old plants
Excerpt: Homologous recombination was detected in plants, in particular Arabidopsis thaliana and tobacco plants, that were transformed with scorable reporter markers, for example, beta-glucuronidase (uidA or GUS). Upon homologous recombination, the marker gene is restored. Homologous recombination events were identified using histochemical staining. […] A recombination substrate generally consists of two non-functional overlapping copies of a GUS gene. Damage to one of the regions of homology may be repaired using the second copy as a template. A simple count of the number of recombination events in a population of plants was used to conduct quantitative analyses of beta-glucuronidase (GUS) activity. The homologous recombination frequency (HRF) was determined by relating the number of blue spots counted which are indicative of […] and then relating that number to the total number of plants scored. The recombination rate (RR) was determined by relating the HRF to the total number of haploid genomes present in the plant.
The total DNA of the transgenic lines was isolated from whole plants at preferably the full rosette stage using a Nucleon™ PhytoPure™ plant DNA extraction kit from Amersham Life Science. DNA may also be isolated from plants at a different development stage. The yield of total DNA measured in one of micrograms per plant or micrograms per plant organ was compared with the known mean DNA content, 0.16 pg of an A. thaliana cell, to give an approximate number of genomes present in plants (Swoboda et al., Mol. Gen. Genet., 1993, 237(1-2): 33-40). The total DNA was isolated from one of all leaves, roots, and stems of 4 plants per each experimental group for each transgenic line. The average DNA content from these samples was used to estimate the number of genomes present.
Tissues were prepared from A. thaliana plants that were germinated and grown for a period of 3 weeks on a medium containing 0, 25, 75, and 100 mM of NaCl. The recombination rate (RR) was calculated by scoring the HRF in separate groups of 3-week-old plants and then relating these numbers to the total number of genomes present in the plants. Each of the calculated values represents the mean value for the RR. […] The “Fold Increase” values shown in Table 1 were calculated by relating the data from plants grown on 25, 75 and 100 mM of NaCL to the data from plants grown in the absence of NaCl.
Plants were germinated and grown on MS medium supplemented with one of 25 mM NaCl, 12.5 mM of Na2SO4, 12.5 mM of MgCl2, and 12.5 mM of MgSO4. Control plants were grown on standard MS medium. […] The data shown is the RR as an average of two independent experiments, each having 200 plants per experimental group.
The effects of KCl on plant transformation were measured using transgenic plants germinated from Arabidopsis line #11 obtained from Prof. Hohn, Friedrich Miescher Institute, Basel, Switzerland. Plants were germinated and grown on a solid or modified MS basal medium in presence of varying quantities of KCl. In order to establish KCl as the single source of potassium in all the modified media, KNO3, normally present in MS media was omitted. Additionally, potassium dihydrogenphosphate (KH2PO4) was replaced with ammonium dihydrogenphosphate (NH4▪H2PO4).

Nicotiana tabacum [1] = test: Calli regeneration under hygromycin selection after Agrobacterium transformation of leaves; type: in vivo; conditions: for Calli regenerated and transplanted: died on soil / Calli regenerated and transplanted: total: 20 leaves transformed
Protocol: Seeds of tobacco cultivar “Big Havana” were surface-sterilized with a solution containing 1% bleach and 0.05% Tween-80, for about 3 minutes and then rinsed twice with sterile distilled water for about 5 minutes. Surface-sterilized seeds were plated in 100 mm Petri dishes on sterile Whatman® filter paper submersed in 4 ml of liquid MS medium containing varying amounts of KCl and the plants were transferred to a growth chamber for germination. Once germinated, the plants were removed from the growth chamber and grown for a period of one week under conditions of 16-hours light, 22° C. and 8-hours dark, 18° C. Three to five one-week-old plants were then removed from the 4-ml liquid medium and were transferred to single sterile glass 250-ml flasks containing 15 ml of sterile liquid MS media supplemented with varying amounts of KCl. Flasks were then installed on shakers at 50-75 rpm. Plants were continuously grown under conditions of 16-hours light, 22° C. and 8-hours dark, 18° C. The growth medium in each flask was replaced weekly with 25 ml of fresh medium. Following a 3-week period, plants were removed from the flasks and 2 to 3 pairs of fully developed fresh leaves about 2-4 cm long were harvested (cut from the plant) for transformation with Agrobacteria.
Experimental groups of tobacco plants were germinated and grown in a liquid medium culture supplemented with varying amounts of KCl. Control plants for the transformation experiments were grown in a standard MS-medium that was not supplemented with KCl.
Four weeks post-germination, the tobacco plants were removed from the liquid medium culture. The leaves from the plants were removed, and several parallel incisions were made along the leaves. The leaves were then vacuum infiltrated with an Agrobacterium suspension culture carrying the plasmid with LUC (gene coding for luciferase) and hygromycin (gene coding for the resistance to hygromycin) genes.
The leaves were vacuum-infiltrated twice for about 5 minutes with the Agrobacterium suspension culture using standard procedures known in the art. Following vacuum-infiltration, the tobacco leaves were dried for about 5 to 10 minutes on sterile Whatman® filter paper to remove substantially all excess Agrobacterium cells. The leaves were then placed on plates containing MS medium, and each of the plates were placed for in a room for a period of 3 day at a temperature of 22° C. and exposed to a daily regime of 16-hours of light and 8-hours of dark.
Leaves from each of the experimental groups grown on the different media compositions having varying amounts of KCL and the controls were washed with sterile water to remove the Agrobacterium suspension. To remove traces of growth medium, leaves were blotted on sterile filter paper and then submersed in a Petri dish laid out with Whatman® filter paper containing re-suspended Agrobacterium cells. Each submersed leaf surface was incised using a sharp surgical blade in parallel along the side veins. The distance between the two parallel incisions was about 5-7 mm. The primary leaf vein and leaf margins were left intact. Once cutting was complete, leaves remained submersed for a period of about 10 minutes. Leaves were then removed from the Petri dish and were blotted dry and placed upside-down on plates of MS medium, and were incubated in a dark room at 22° C. for a period of 3 days. […]
After a period of about 3 to 4 weeks, the numbers of regenerated calli were determined. […]

Nicotiana tabacum [2] = test: Stable T-DNA integration (LUC expression test of regenerated plantlets); type: in vivo; conditions: for Calli regenerated and transplanted, LUC expression test: LUC negative / Calli regenerated and transplanted, LUC expression test: LUC positive: 20 leaves transformed
Excerpt: The number of transgenic plants, having incorporated a marker gene, regenerated from tobacco calli in various transformation experiments were counted. All the regenerated plants were screened using a luciferase camera. Spraying the transgenic plants with luciferine, the substrate for luciferase enzyme, allowed the identification of transgenic plants expressing the luciferase.
The newly appeared plantlets regenerated from the calli of Example 4 showing evidence of root formation, were excised from the calli and transferred to soil.
Plantlets were sprayed with luciferine, and the total number of luciferase-positive plantlets was scored. This allowed the calculation of the transformation frequency, as the number of plants expressing LUC gene to the number of transformed leaves, shown in FIG. 7.

[Cl-].[K+] [KCl, potassium chloride]
increase in homologous recombination vs control MS medium (Arabidopsis thaliana; modified medium with 18.8 mM KCl): 9.3 fold | increase in homologous recombination vs control MS medium (Arabidopsis thaliana; modified medium with 47 mM KCl): 15.4 fold | increase in homologous recombination vs control MS medium (Arabidopsis thaliana; modified medium with 94 mM KCl): 19.2 fold | Calli regenerated and transplanted: died on soil (Nicotiana tabacum [1]; 47 mM KCl): 0 | Calli regenerated and transplanted: total (Nicotiana tabacum [1]; 47 mM KCl): 138 | Calli regenerated and transplanted: died on soil (Nicotiana tabacum [1]; 94 mM KCl): 3 | Calli regenerated and transplanted: total (Nicotiana tabacum [1]; 94 mM KCl): 181 | increase in number of calli regenerated vs control medium (Nicotiana tabacum [1]; media containing 47 and 94 mM KCl): 5.9 fold | Integration frequency, LUC positive plants/leaf transformed (Nicotiana tabacum [2]; 47 mM KCl): 5.3 | difference in number of stable transformants vs control media (Nicotiana tabacum [2]; 47 mM KCl): 5.9 fold | Calli regenerated and transplanted, LUC expression test: LUC negative (Nicotiana tabacum [2]; 47 mM KCl): 32 | Calli regenerated and transplanted, LUC expression test: LUC positive (Nicotiana tabacum [2]; 47 mM KCl): 106 | Integration frequency, LUC positive plants/leaf transformed (Nicotiana tabacum [2]; 94 mM KCl): 7.2 | difference in number of stable transformants vs control media (Nicotiana tabacum [2]; 94 mM KCl): 8.0 fold | Calli regenerated and transplanted, LUC expression test: LUC negative (Nicotiana tabacum [2]; 94 mM KCl): 41 | Calli regenerated and transplanted, LUC expression test: LUC positive (Nicotiana tabacum [2]; 94 mM KCl): 144 | effect on plant phenotype / plant biomass (Arabidopsis; 100 mM KCl in MS medium): no decrease in plant biomass was observed

[Cl-].[Cl-].[Mg+2] [MgCl2]
effect on homologous recombination frequency (Arabidopsis thaliana; MS medium + 12.5 mM MgCl2, 21 days post-germination): significantly positive effects

[Cl-].[Na+] [NaCl]
RR (recombination rate) (Arabidopsis thaliana; 25 mM NaCl in medium): 12.29 ± 0.18 10^−8 | Fold Increase of RR (Arabidopsis thaliana; 25 mM NaCl vs plants grown in absence of NaCl): 1.64 | RR (recombination rate) (Arabidopsis thaliana; 75 mM NaCl in medium): 22.52 ± 0.34 10^−8 | Fold Increase of RR (Arabidopsis thaliana; 75 mM NaCl vs plants grown in absence of NaCl): 3 | RR (recombination rate) (Arabidopsis thaliana; 100 mM NaCl in medium): 29.57 ± 0.82 10^−8 | Fold Increase of RR (Arabidopsis thaliana; 100 mM NaCl vs plants grown in absence of NaCl): 3.93 | effect on homologous recombination frequency (Arabidopsis thaliana; MS medium + 25 mM NaCl, 21 days post-germination): significantly positive effects | increase in recombination frequency (Arabidopsis thaliana; exposure to 25-100 mM NaCl): 2-4 fold | decrease in plant biomass (Arabidopsis; 75 mM NaCl in MS medium): ~20% | decrease in plant biomass (Arabidopsis; 100 mM NaCl in MS medium): ~50%
